Assay results: US9161944B2, “Method for preventing cancer metastasis” (INSERM (INSTITUT NATIONAL DE LA SANTE ET DE LA SANTE ET DE …, priority 2010, dated 2015)

Tests used:
[1] = tested on: LPA (lysophosphatidic acid) receptor; assay: LPA receptor binding
Description: Indeed, the molecular structure of JPH1701 resembles to LPA and PAF. This similarity between the molecular structures prompted us to analyse whether some of the JPH1701's effects were mediated through its binding to the PAF receptor or to the LPA (lysophosphatidic acid) receptor. […] The same results were obtained with LPA receptor (105.3±8.0% and 87.2±4.7% of LPA binding respectively at 0.3 and 2 μM JPH1701). It has been also reported that edelfosine inhibits enzyme activity like protein kinase C or phospholipase C that may explain some of its cytostatic and cytotoxic effects.

[2] = tested on: endogenously HEK potassium current; assay: Endogenous HEK potassium current (patch clamp); type: cell-based; conditions: applied concentration range; data not shown
Description: Whatever the concentration tested approximately 40 sec was needed to reduce 50% of the amplitude of the current. […] Increasing intracellular calcium concentration by the addition of 5 μM A23187 totally reversed the effect of JPH1701 (data not shown).

[3] = target: SK3/KCa2.3 channel (Homo sapiens, UniProt Q9UGI6); assay: Whole-cell patch clamp on HEK293 cells expressing SK3; type: cell-based; set-up: expressed in transfected cells; host or cells: HEK293, lentiviral transduction, clonal selection
Description: The percentages of inhibition represent the ratio (SK3 current amplitude and chord conductance (in the presence of 10 μM JPH1701)/SK3 current amplitude in control experiments). Black bars show current at 0 mV and grey bars indicate the chord conductance. […] Columns, mean, bars, SEM, (5 cells for racemic mix and 4 cells for + and − forms).
MDA-MB-435s and HEK293 cells were transduced with lentiviral vector at multiplicities of infection (MOI) of 1 to 3 in the presence of polybrene (4 μg/ml, Sigma).
Experiments were performed with cells seeded into 35-mm Petri dishes at 3000 cells per cm2. All experiments were performed using the conventional whole-cell recording configuration of the patch-clamp technique as previously described. PCa solution was 7 and 6.4 respectively for MDA-MB-435s and HEK293-SK3/KCa2.3 cells.
Briefly, experiments were conducted using Axopatch 200B patch-clamp amplifier (Axon Instrument) and data, digitized with 1322-A Digidata converter (Axon Instrument), were stored on a computer using Clampex of pClamp 9.2 software (Axon Instru-ment). The patch-clamp data was analyzed using both Clampfit 9.2 and Origin 7.0 software (Microcal Inc., Northampton, Mass., USA).
The pipette solution for the whole-cell recordings contained (in mM): K-glutamate 125, KCl 20, MgCl2 1, Mg-ATP 1, HEPES 10, and pH was adjusted to 7.2 with KOH and various concentrations of CaCl2 and EGTA were added to obtain calculated pCa=7 (0.37 mM CaCl2 and 10 mM EGTA) or pCa=6.4 (0.7 mM CaCl2 and 1 mM EGTA).
We next developed HEK cells expressing SK3/KCa2.3 channel in order to test directly analogues on SK3 activity measured using patch-clamp technique (FIG. 8). […] The JPH1701-induced inhibition of SK3 current was analysed at 0 mV and the entire time course of the experiment is depicted in FIG. 8A.
Current activity has been measured in HEK 293 LvSK3 and in MDA-MB-435s cells. The percentages represent the inhibition of current and of conductance by compounds on SK3 channel in HEK 293 cells.

[4] = tested on: MCF-10A; assay: Viability (MTT) of non cancerous cells; type: cell-based, human; conditions: FIG. 6D
Description: FIG. 6: JPH1701 (or Ohmline) activity on cell motility on cancerous MDA-MB-435s cells and on non cancerous MCF-10A cells. The motility was tested by transwell assay. Additionally, viability tests were performed using MTT assays. FIG. 6A-B) JPH1701 (the concentrations of JPH1701, for the FIG. 6A, are 0 (control condition), 10 nM, 100 nM, 300 nM and 1 μM) reduces motility (FIG. 6A) of MDA-MB-435s wild type (WT) cells from 10 nM without affecting viability (FIG. 6B) except at 10 μM. FIG. 6C-D) MCF-10A motility (FIG. 6C) and viability (FIG. 6D) are not affected by JPH1701 (the concentrations of JPH1701, for the FIG. 6C, are 0 (control condition), 10 nM, 100 nM, 300 nM and 1 μM). FIG. 6E-F) Effect on SK3 dependent motility.
The immortalized normal mammary epithelial cell lines MCF-10A and 184A1 were cultured in DMEM/Ham's F-12, 1:1 mix containing 5% horse serum (Invitrogen Life Technologies, France), insulin (10 μg/ml), epidermal growth factor (20 ng/ml), hydrocortisone (0.5 μg/ml) and, respectively for MCF-10A and 184A1, 100 ng/ml cholera toxin and 1 ng/ml cholera toxin plus 5 μg/ml transferrin.

[5] = tested on: PKCs; assay: PKCs activity (alpha, Beta 1, Beta 2, Gamma, Delta, Epsilon, Zeta, Eta, Theta, Iota); type: biochemical; conditions: ten PKCs, FIG. 11C
Description: FIG. 11: Effects of JPH1701 on PAF receptor, PLC and PKCs activities. FIG. 11A) Histogram showing the percentage of control specific binding of 3H-C16-PAF to recombinant PAF receptor obtained from membrane homogenates of CHO cells by 0.3 and 2 μM edelfosine and by 0.3 and 2 μM JPH1701. FIG. 11B) Histogram showing the percentage of control agonist response (% effect i.e: increase of intracellular calcium concentration) of 0.3 and 2 μM edelfosine and JPH1701 on PAF receptor normalized to the response induced by 100 nM C16-PAF. […] FIG. 11C-D) Dose responses curves showing the effect of JPH1701 on PKCs (FIG. 11C, PKCs are: alpha, Beta 1, Beta 2, Gamma, Delta, Epsilon, Zeta, Eta, Theta, Iota) and PhosphoLipase C (PLC) activities (FIG. 11D).

“hexadecyloxy-2-O-methyl-sn-glycerol-lactose [JPH1701]” was tested, and the “% of LPA binding” value ([1]; 0.3 μM) was 105.3±8.0%, the “% of LPA binding” value ([1]; 2 μM) was 87.2±4.7% and the “Effect on endogenous HEK potassium current” value [2] was “not significantly affected”. For the same substance, the “Effect on SK3 current amplitude at 0 mV” value ([3]; 10 μM, FIG. 9B, ranking SK3>SK1) was “significantly reduced”, the “Reduction of the amplitude of the SK3 current at 0 mV” value ([3]; 10 μM, after 120 sec) was “about 70%” and the “Time needed to reduce 50% of the amplitude of the current” value ([3]; 0.3, 1 and 10 μM, whatever the concentration) was “approximately 40 sec”. For the same substance, the Conductance decreasing ([3]; HEK 293 LvSK3 cells) was 66.1 ± 1.5%, the “Inhibition of I at 0 mV” value ([3]; HEK 293 LvSK3 cells, 10 μM stated for JPH1701) was 70.1 ± 1.4% and the “Effect on cell viability of non-cancerous cells” value [4] was “did not affected”. For the same substance, the “Effect on PKC activity” value [5] was “did not affect”.
